Reference: patent publication US20230233569A1 (Revolution Medicines, Inc., priority 2020, published 2023)

Tests used:
NRAS Q61R = NRAS Q61R (Homo sapiens, UniProt P01111+P62937, Q61R); assay: Disruption of BRAF RBD interaction with Ras (FRET / MOA assay, with Cyclophilin A); type: biochemical; settings: NRAS Q61R; read-out: NRAS Q61R FRET data IC50
In short: (§1)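 TR-FRET in 25 mM HEPES pH 7.3, 100 mM NaCl, 5 mM MgCl2, 0.1% BSA: 25 μM Cyclophilin A, 12.5 nM His6-Ras-GMPPNP, 50 nM GST-BRAF RBD with compound (10-point 3-fold series from 30 μM), 3 h at 25° C. Anti-His Eu/anti-GST APC added, 1.5 h more; IC50 from decreased FRET ratio versus DMSO.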

NRAS Q61K = NRAS Q61K (Homo sapiens, UniProt P01111+P62937, Q61K); assay: as above; type: biochemical; settings: NRAS Q61K; read-out: NRAS Q61K FRET data IC50
In short: as §1

[1] = test system: K-Ras G12C (NCI-H358 cells); assay: Potency assay: pERK (AlphaLISA SureFire or In-Cell Western); type: cell-based; settings: Homo sapiens, NCI-H358; H358 KRAS G12C; read-out: pERK EC50
In short: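 NCI-H358 cells plated overnight, then treated 4 h at 37 °C with 10-point 3-fold DMSO dilutions (10 mM top stock), in duplicate. pERK1/2 read by AlphaLISA SureFire Ultra lysate assay or by In-Cell Western with DRAQ5 DNA stain. IC50 from 4-parameter sigmoidal fit of signal vs log concentration.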

NCI-H358 (K-Ras G12C) = assay: CellTiter-Glo cell viability assay, 5-day treatment; type: cell-based; settings: Homo sapiens, NCI-H358, H358, K-Ras G12C; read-out: Additional H358 Cell Viability assay data (K-Ras G12C, IC50)
In short: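 Seeded cells received test compound by direct dispensing. On day 5 the plates sat at room temperature approximately 30 minutes, then luminescence was measured. Data were normalized to DMSO and curve-fitted with four parameters.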

NRAS G12C = NRAS G12C (Homo sapiens, UniProt P01111+P62937, G12C); assay: Disruption of BRAF RBD interaction with Ras (FRET / MOA assay, with Cyclophilin A); type: biochemical; settings: NRAS G12C; read-out: NRAS G12C FRET data IC50
KRAS G13C = KRAS G13C (Homo sapiens, UniProt P01116+P62937, G13C); assay: as above; type: biochemical; settings: KRAS G13C; read-out: KRAS G13C FRET data IC50
In short: (§2)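 Biochemical TR-FRET disruption assay: nucleotide-loaded K-Ras with Cyclophilin A and a BRAF RBD construct, compound titrated over 10 points from 30 μM (final).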

KRAS G12D = KRAS G12D (Homo sapiens, UniProt P01116+P62937, G12D); assay: as above; type: biochemical; settings: read-out: KRAS G12D FRET data, IC50
In short: as §2

NRAS Q61R, sequence (P01111 whole entry Q61R): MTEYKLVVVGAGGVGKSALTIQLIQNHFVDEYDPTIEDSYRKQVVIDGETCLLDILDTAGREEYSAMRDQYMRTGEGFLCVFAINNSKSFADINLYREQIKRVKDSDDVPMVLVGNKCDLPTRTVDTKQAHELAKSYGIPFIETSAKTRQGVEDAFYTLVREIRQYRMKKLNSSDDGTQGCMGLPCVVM
NRAS Q61R, sequence (P62937 whole entry): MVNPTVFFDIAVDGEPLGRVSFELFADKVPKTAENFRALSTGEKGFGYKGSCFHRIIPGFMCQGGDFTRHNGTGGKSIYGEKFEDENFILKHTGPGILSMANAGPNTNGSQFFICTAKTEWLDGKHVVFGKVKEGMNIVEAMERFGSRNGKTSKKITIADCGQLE
NRAS Q61K, sequence (P01111 whole entry Q61K): as the sequence (P01111 whole entry Q61R) above, with R61K counted along it
NRAS Q61K, sequence (P62937 whole entry): as the sequence (P62937 whole entry) above
NRAS G12C, sequence (P01111 whole entry G12C): as the sequence (P01111 whole entry Q61R) above, with G12C, R61Q counted along it
NRAS G12C, sequence (P62937 whole entry): as the sequence (P62937 whole entry) above
KRAS G12D, sequence (P01116 1-169 isoform P01116-2 G12D limits assumed): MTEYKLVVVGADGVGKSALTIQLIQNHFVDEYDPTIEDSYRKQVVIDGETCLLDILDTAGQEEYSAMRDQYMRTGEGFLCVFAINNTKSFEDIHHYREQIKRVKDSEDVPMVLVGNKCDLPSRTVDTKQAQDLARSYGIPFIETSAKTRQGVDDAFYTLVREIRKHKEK
KRAS G12D, sequence (P62937 whole entry): as the sequence (P62937 whole entry) above
KRAS G13C, sequence (P01116 1-169 isoform P01116-2 G13C): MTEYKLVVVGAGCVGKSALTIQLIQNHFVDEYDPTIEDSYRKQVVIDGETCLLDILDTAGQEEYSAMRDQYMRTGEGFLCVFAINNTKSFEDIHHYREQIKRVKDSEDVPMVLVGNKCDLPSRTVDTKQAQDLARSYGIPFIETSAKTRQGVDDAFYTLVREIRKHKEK
KRAS G13C, sequence (P62937 whole entry): as the sequence (P62937 whole entry) above

| Structure (SMILES) | IC50 (NRAS Q61R) [nM] | IC50 (NRAS Q61K) [nM] | EC50 [1] [nM] | IC50 (NCI-H358 (K-Ras G12C)) [nM] | IC50 (NRAS G12C) [nM] | IC50 (KRAS G13C) [nM] | IC50 (KRAS G12D) [nM] |
| --- | --- | --- | --- | --- | --- | --- | --- |
| CCn1c(-c2cccnc2[C@H](C)OC)c2c3cc(ccc31)-c1cccc(n1)C[C@H](NC(=O)[C@H](C(C)C)N(C)C(=O)N1CCC13CN(C(=O)C#CC(C)(C)N(C)C)C3)C(=O)N1CCCC(N1)C(=O)OCC(C)(C)C2 (stereo partly shown) [Example A623] | 1000 to 10000 | 100 to 1000 | < 5000 | 10 to 100 | 100 to 1000 | – | – |
| CCn1c(-c2cccnc2[C@H](C)OC)c2c3cc(ccc31)-c1csc(n1)C[C@H](NC(=O)[C@H](C(C)C)N(C)C(=O)N1C[C@@H]3CN(C(=O)C#CC(C)(C)N(C)C)CC[C@@H]31)C(=O)N1CCCC(N1)C(=O)OCC(C)(C)C2 (stereo partly shown) [Example A625] | 100 to 1000 | 100 to 1000 | < 5000 | 10 to 100 | 100 to 1000 | – | – |
| C=CC(=O)N(C)[C@H]1CN(C(=O)N(C)[C@H](C(=O)N[C@H]2Cc3nc(cs3)-c3ccc4c(c3)c(c(-c3cccnc3[C@H](C)OC)n4CC)CC(C)(C)COC(=O)C3CCCN(N3)C2=O)C(C)C)C[C@H]1F (stereo partly shown) [Example A631] | 100 to 1000 | 10 to 100 | < 5000 | < 10 | 10 to 100 | – | – |
| C=CC(=O)N1CCO[C@@H]2CCN(C(=O)N(C)[C@H](C(=O)N[C@H]3Cc4nc(cs4)-c4ccc5c(c4)c(c(-c4cccnc4[C@H](C)OC)n5CC)CC(C)(C)COC(=O)C4CCCN(N4)C3=O)C(C)C)CC21 (stereo partly shown) [Example A596] | 10 to 100 | 10 to 100 | < 5000 | < 10 | 10 to 100 | – | – |
| CCn1c(-c2cccnc2[C@H](C)OC)c2c3cc(ccc31)-c1csc(n1)C[C@H](NC(=O)[C@@H](F)COC1CN(C(=O)C#CC(C)(C)N(C)C)C1)C(=O)N1CCCC(N1)C(=O)OCC(C)(C)C2 (stereo partly shown) [Example A626] | 1000 to 10000 | 1000 to 10000 | < 5000 | 10 to 100 | < 10 | – | – |
| CCn1c(-c2cccnc2[C@H](C)OC)c2c3cc(ccc31)-c1cccc(c1)C[C@H](NC(=O)[C@@H](COC1CN(C(=O)C#CC(C)(C)N(C)C(C)C)C1)C(C)C)C(=O)N1CCCC(N1)C(=O)OCC(C)(C)C2 (stereo partly shown) [Example A599] | > 10000 | > 10000 | < 5000 | < 10 | 10 to 100 | – | – |
| C=CC(=O)Nc1cnc(OC[C@H](C(=O)N[C@H]2Cc3cccc(c3)-c3ccc4c(c3)c(c(-c3cccnc3[C@H](C)OC)n4CC)CC(C)(C)COC(=O)C3CCCN(N3)C2=O)C(C)C)n1C (stereo partly shown) [Example A600] | 1000 to 10000 | 1000 to 10000 | < 5000 | < 10 | < 10 | – | – |
| C=CC(=O)N1CC[C@H](C(=O)N(C)[C@H](C(=O)N[C@H]2Cc3cccc(c3)-c3ccc4c(c3)c(c(-c3cccnc3[C@H](C)OC)n4CC)CC(C)(C)COC(=O)C3CCCN(N3)C2=O)[C@H](C)C(F)(F)F)C1 (stereo partly shown) [Example A641] | 1000 to 10000 | 1000 to 10000 | < 5000 | 10 to 100 | 100 to 1000 | – | – |
| C=CC(=O)N(C)CC1CCN(C(=O)N(C)[C@H](C(=O)N[C@H]2Cc3nc(cs3)-c3ccc4c(c3)c(c(-c3cccnc3[C@H](C)OC)n4CC)CC(C)(C)COC(=O)C3CCCN(N3)C2=O)C(C)C)CC1 (stereo partly shown) [Example A629] | 10 to 100 | 10 to 100 | < 5000 | < 10 | 10 to 100 | 10 to 100 | 100 to 1000 |
| C=CC(=O)N1CCCC2(CCN(C(=O)N(C)[C@H](C(=O)N[C@H]3Cc4nc(cs4)-c4ccc5c(c4)c(c(-c4cccnc4[C@H](C)OC)n5CC)CC(C)(C)COC(=O)C4CCCN(N4)C3=O)C(C)C)CC2)C1 (stereo partly shown) [Example A635] | 100 to 1000 | 100 to 1000 | < 5000 | 100 to 1000 | 100 to 1000 | – | – |
| C=CC(=O)N1CCC[C@H]2CN(C(=O)N(C)[C@H](C(=O)N[C@H]3Cc4nc(cs4)-c4ccc5c(c4)c(c(-c4cccnc4[C@H](C)OC)n5CC)CC(C)(C)COC(=O)C4CCCN(N4)C3=O)C(C)C)C[C@H]21 (stereo partly shown) [Example A618] | 100 to 1000 | 100 to 1000 | < 5000 | 10 to 100 | 100 to 1000 | – | – |
| C=CC(=O)N1CC[C@H](C(=O)N(C)[C@H](C(=O)N[C@H]2Cc3cccc(c3)-c3ccc4c(c3)c(c(-c3cccnc3[C@H](C)OC)n4CC)CC(C)(C)COC(=O)C3CCCN(N3)C2=O)[C@@H](C)C(F)(F)F)C1 (stereo partly shown) [Example A640] | 1000 to 10000 | 1000 to 10000 | < 5000 | 10 to 100 | 100 to 1000 | – | – |
| C=CC(=O)N1CC2[C@@H](C1)CN2C(=O)N(C)[C@H](C(=O)N[C@H]1Cc2nc(cs2)-c2ccc3c(c2)c(c(-c2cccnc2[C@H](C)OC)n3CC)CC(C)(C)COC(=O)[C@@H]2CCCN(N2)C1=O)C(C)C (stereo partly shown) [Example A686] | 100 to 1000 | 10 to 100 | < 5000 | < 10 | 10 to 100 | – | – |
| C=CC(=O)N1CC[C@H](C(=O)N(C)[C@@H](CC(F)(F)F)C(=O)N[C@H]2Cc3cccc(c3)-c3ccc4c(c3)c(c(-c3cccnc3[C@H](C)OC)n4CC)CC(C)(C)COC(=O)C3CCCN(N3)C2=O)C1 (stereo partly shown) [Example A639] | 1000 to 10000 | 1000 to 10000 | < 5000 | 100 to 1000 | 100 to 1000 | – | – |
| C=CC(=O)N1CCC[C@@H]2CN(C(=O)N(C)[C@H](C(=O)N[C@H]3Cc4nc(cs4)-c4ccc5c(c4)c(c(-c4cccnc4[C@H](C)OC)n5CC)CC(C)(C)COC(=O)C4CCCN(N4)C3=O)C(C)C)C[C@@H]21 (stereo partly shown) [Example A619] | 100 to 1000 | 100 to 1000 | < 5000 | 10 to 100 | 100 to 1000 | – | – |
| C=CC(=O)N1CC2(C1)OCCN2C(=O)N(C)[C@H](C(=O)N[C@H]1Cc2nc(cs2)-c2ccc3c(c2)c(c(-c2cccnc2[C@H](C)OC)n3CC)CC(C)(C)COC(=O)C2CCCN(N2)C1=O)C(C)C (stereo partly shown) [Example A620] | 100 to 1000 | 10 to 100 | < 5000 | < 10 | < 10 | – | – |
| CO[C@@H](C)c1ncccc1-c1c2c3cc(ccc3n1CC(F)(F)F)-c1csc(n1)C[C@H](NC(=O)[C@H](C(C)C)N(C)C(=O)N1CCC3(CC1)CN(C(=O)/C=C/CF)C3)C(=O)N1CCCC(N1)C(=O)OCC(C)(C)C2 (stereo partly shown) [Example A602] | 10 to 100 | 10 to 100 | < 5000 | < 10 | 10 to 100 | – | – |
| C=CC(=O)N(C)CCC1CCN(C(=O)N(C)[C@H](C(=O)N[C@H]2Cc3nc(cs3)-c3ccc4c(c3)c(c(-c3cccnc3[C@H](C)OC)n4CC)CC(C)(C)COC(=O)C3CCCN(N3)C2=O)C(C)C)CC1 (stereo partly shown) [Example A621] | 10 to 100 | 10 to 100 | < 5000 | < 10 | 10 to 100 | – | – |
| CCn1c(-c2cccnc2[C@H](C)OC)c2c3cc(ccc31)-c1csc(n1)C[C@H](NC(=O)[C@H](F)COC1CN(C(=O)C#CC(C)(C)N(C)C)C1)C(=O)N1CCCC(N1)C(=O)OCC(C)(C)C2 (stereo partly shown) [Example A627] | > 10000 | > 10000 | < 5000 | < 10 | < 10 | – | – |
| CCn1c(-c2cccnc2[C@H](C)OC)c2c3cc(ccc31)N1CCC[C@@H](C[C@H](NC(=O)[C@H](C(C)C)N(C)C(=O)C3CCN(C(=O)C#CC(C)(C)N4CCC4)C3)C(=O)N3CCCC(N3)C(=O)OCC(C)(C)C2)C1 (stereo partly shown) [Example A617] | > 10000 | > 10000 | < 5000 | 10 to 100 | 10 to 100 | – | – |
| C=CC(=O)N1CCO[C@H]2CN(C(=O)N(C)[C@H](C(=O)N[C@H]3Cc4cccc(n4)-c4ccc5c(c4)c(c(-c4cccnc4[C@H](C)OC)n5CC)CC(C)(C)COC(=O)C4CCCN(N4)C3=O)C(C)C)C[C@H]21 (stereo partly shown) [Example A597] | 100 to 1000 | 100 to 1000 | < 5000 | < 10 | 10 to 100 | – | – |
| C=CC(=O)N1CC2(CCN2C(=O)N(C)[C@H](C(=O)N[C@H]2Cc3cccc(n3)-c3ccc4c(c3)c(c(-c3cccnc3[C@H](C)OC)n4CC)CC(C)(C)COC(=O)C3CCCN(N3)C2=O)C(C)C)C1 (stereo partly shown) [Example A636] | 100 to 1000 | 100 to 1000 | < 5000 | < 10 | 10 to 100 | – | – |
